Tests used:
[1] = molecular target: T1, K-Ras G12S (Homo sapiens, UniProt P01116, G12S); assay: HTRF assay of the K-Ras / SOS1 interaction; format: biochemical; conditions: IC50 (against K-Ras G12D) to IC50 (against K-Ras G12S)
T1 construct: made in house; host or cells: E. coli (e.g., BL21 (DE3))
Outline: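 Compounds (duplicates, 10 µM to 0.01 µM) were incubated ≥~10 min with Eu-labelled GST-K-Ras G12S and XL665-labelled His-hSOS1 in HEPES pH 7.4 buffer containing NaCl, DTT, BSA and Igepal. Disruption measured as HTRF emission ratio 665/620 nm, fitted to IC50.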

[2] = molecular target: T2, KRAS protein (His-tagged GDP-loaded G12S 1-169) (Homo sapiens, UniProt P01116, G12S); assay: Covalent modification of KRAS protein, intact-protein LC-MS; format: binding; conditions: 24hrs at room temperature, KRAS protein ~2 µM
T2 construct: His-tagged GDP-loaded G12S 1-169
Experimental: Test compounds are prepared as 10 mM stock solutions in DMSO (Fisher cat#BP231-100). KRAS protein (His-tagged GDP-loaded wildtype 1-169, His-tagged GDP-loaded G12S 1-169 or His-tagged GDP-loaded G12D 1-169) is diluted to ~2 µM in appropriate buffer (e.g., a Hepes buffer at physiological conditions). For testing KRAS modification, compounds are diluted to 50X final test concentration in DMSO in 96-well storage plates. 2 µl of the diluted 50X compounds are added to appropriate wells in the PCR plate (Fisher cat#AB-0800). […] of the stock protein solution is added to each well of the 96-well PCR plate. Reactions are mixed carefully. The plate is sealed well with aluminum plate seal, and stored in drawer at room temperature for 24hrs. 5 µl of 2% formic acid (Fisher cat#A1 17-50) in MilliQ H2O is then added to each well followed by mixing with a pipette. The plate is then resealed with aluminum seal and stored until mass spectrometry analysis.
The extent of covalent modification of KRAS proteins was determined by liquid chromatography electrospray mass spectrometry analysis of the intact proteins on a Thermo Q-Exactive Plus mass spectrometer. 20 µl of sample was injected onto a bioZen 3.6 µm Intact C4 column (Phenomenex cat#00B-4767-AN) placed in a column oven set to 40°C and separated using a suitable LC gradient from -20% to ~60% solvent B. Solvent A was 0.1% formic acid and solvent B was 0.1% formic acid in acetonitrile. HESI source settings were set to 40, 5 and 1 for the sheath, auxiliary and sweep gas flow, respectively. The spray voltage was 4 kV, and the capillary temperature was 320°C. S-lens RF level was 50 and auxiliary gas heater temperature was set to 200°C. The mass spectrometry was acquired using a scan range from 650 to 1750 m/z using positive polarity at a mass resolution of 70,000, AGC target of 1e6 ions and maximum injection time of 250ms. The recorded protein mass spectrum was deconvoluted from the raw data file using Protein Deconvolution v4.0 (Thermo). The protein mass and adduct masses were exported with their peak intensities. The peak intensities for the unmodified and modified protein were used to calculate the percent covalent modification of the KRAS protein based on the following equation: %KRAS protein modification = ((KRAS-compound) / (KRAS) + (KRAS-Compound)) *100.

[3] = tested on: GP2D cells; assay: Cell proliferation assay (CellTiter-Glo), K-Ras G12D cells; format: cell-based; conditions: GP2D cells (K-Ras G12D); read-out: Inhibition of GP2D Cells (IC50)
Outline: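 CellTiter-Glo luminescence, taken roughly 5 days after dosing, measured growth of G12D-mutant GP2D cells in DMEM/2 mM glutamine/10% FBS. Compound dilution series (e.g., 9 points, 3-fold) added the day after plating. Four-parameter fitting gave IC50.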

SMILES: N#Cc1c(N)sc2c(F)ccc(-c3c(Cl)cc4c(N5CCOC6(CN(C(=O)n7cncn7)C6)C5)nc(OC[C@@]56CCCN5C[C@H](F)C6)nc4c3F)c12 [Compound A132, 4-(4-(2-(1H-1,2,4-triazole-1-carbonyl)-5-oxa-2,8-diazaspiro[3.5]nonan-8-yl)-6-chloro-8-fluoro-2-(((2R,7aS)-2-fluorotetrahydro-1H-pyrrolizin-7a(5H)-yl)methoxy)quinazolin-7-yl)-2-amino-7-fluorobenzo[b]thiophene-3-carbonitrile]
- Ratio of IC50 KRAS G12D vs. IC50 KRAS G12S [1]: A (A: indicates that the ratio of IC50 against KrasG12D vs. IC50 against KrasG12S is 1-fold or greater)
- % G12S Modification at 24 hr. [2]: +++ (+++ indicates greater than 20% labelling)
- IC50 [3]: 1000 to 10000 nM

SMILES: N#Cc1c(N)sc2c(F)ccc(-c3c(Cl)cc4c(N5CC6(CN(C(=O)n7cncn7)CCO6)C5)nc(OC[C@@]56CCCN5C[C@H](F)C6)nc4c3F)c12 [Compound A140, 4-(4-(8-(1H-1,2,4-triazole-1-carbonyl)-5-oxa-2,8-diazaspiro[3.5]nonan-2-yl)-6-chloro-8-fluoro-2-(((2R,7aS)-2-fluorotetrahydro-1H-pyrrolizin-7a(5H)-yl)methoxy)quinazolin-7-yl)-2-amino-7-fluorobenzo[b]thiophene-3-carbonitrile]
- Ratio of IC50 KRAS G12D vs. IC50 KRAS G12S [1]: A (A: indicates that the ratio of IC50 against KrasG12D vs. IC50 against KrasG12S is 1-fold or greater)
- % G12S Modification at 24 hr. [2]: +++ (+++ indicates greater than 20% labelling)
- IC50 [3]: 1000 to 10000 nM

SMILES: N#CC[C@H]1CN(c2nc(OC[C@@]34CCCN3C[C@H](F)C4)nc3c(F)c(-c4ccc(F)c5sc(N)nc45)c(Cl)cc23)CCN1C(=O)n1cncn1 [Compound A145, 2-((2S)-4-(7-(2-amino-7-fluorobenzo[d]thiazol-4-yl)-6-chloro-8-fluoro-2-(((2R,7aS)-2-fluorotetrahydro-1H-pyrrolizin-7a(5H)-yl)methoxy)quinazolin-4-yl)-1-(1H-1,2,4-triazole-1-carbonyl)piperazin-2-yl)acetonitrile]
- Ratio of IC50 KRAS G12D vs. IC50 KRAS G12S [1]: A (A: indicates that the ratio of IC50 against KrasG12D vs. IC50 against KrasG12S is 1-fold or greater)
- % G12S Modification at 24 hr. [2]: +++ (+++ indicates greater than 20% labelling)
- IC50 [3]: 1000 to 10000 nM

SMILES: CC(=O)c1c(F)ccc2cc(O)cc(-c3ccc4c(N5CCCC6(CN(C(=O)n7cncn7)C6)C5)nc(OC[C@@]56CCCN5C[C@H](F)C6)nc4c3F)c12 [Compound A154, 1-(8-(4-(2-(1H-1,2,4-triazole-1-carbonyl)-2,6-diazaspiro[3.5]nonan-6-yl)-8-fluoro-2-(((2R,7aS)-2-fluorotetrahydro-1H-pyrrolizin-7a(5H)-yl)methoxy)quinazolin-7-yl)-2-fluoro-6-hydroxynaphthalen-1-yl)ethan-1-one]
- Ratio of IC50 KRAS G12D vs. IC50 KRAS G12S [1]: A (A: indicates that the ratio of IC50 against KrasG12D vs. IC50 against KrasG12S is 1-fold or greater)
- % G12S Modification at 24 hr. [2]: +++ (+++ indicates greater than 20% labelling)
- IC50 [3]: 1000 to 10000 nM

SMILES: N#C[C@H]1CN(c2nc(OC[C@@]34CCCN3C[C@H](F)C4)nc3c(F)c(-c4ccc(F)c5sc(N)nc45)c(Cl)cc23)CCN1C(=O)n1cncn1 [Compound A157, (2R)-4-(7-(2-amino-7-fluorobenzo[d]thiazol-4-yl)-6-chloro-8-fluoro-2-(((2R,7aS)-2-fluorotetrahydro-1H-pyrrolizin-7a(5H)-yl)methoxy)quinazolin-4-yl)-1-(1H-1,2,4-triazole-1-carbonyl)piperazine-2-carbonitrile]
- Ratio of IC50 KRAS G12D vs. IC50 KRAS G12S [1]: A (A: indicates that the ratio of IC50 against KrasG12D vs. IC50 against KrasG12S is 1-fold or greater)
- % G12S Modification at 24 hr. [2]: ++ (++ indicates between about 1%- 20% labelling)
- IC50 [3]: 1000 to 10000 nM

SMILES: N#Cc1c(N)sc2c(F)ccc(-c3ncc4c(N5CC6CCC(C5)N6C(=O)n5ccnc5C#N)nc(OC[C@@]56CCCN5C[C@H](F)C6)nc4c3F)c12 [Compound A165, 1-(3-(7-(2-amino-3-cyano-7-fluorobenzo[b]thiophen-4-yl)-8-fluoro-2-(((2R,7aS)-2-fluorotetrahydro-1H-pyrrolizin-7a(5H)-yl)methoxy)pyrido[4,3-d]pyrimidin-4-yl)-3,8-diazabicyclo[3.2. 1]octane-8-carbonyl)-1H-imidazole-2-carbonitrile]
- Ratio of IC50 KRAS G12D vs. IC50 KRAS G12S [1]: A (A: indicates that the ratio of IC50 against KrasG12D vs. IC50 against KrasG12S is 1-fold or greater)
- % G12S Modification at 24 hr. [2]: ++ (++ indicates between about 1%- 20% labelling)
- IC50 [3]: 1000 to 10000 nM

SMILES: N#Cc1nccn1C(=O)N1CCCN(c2nc(OC[C@@]34CCCN3C[C@H](F)C4)nc3c(F)c(-c4ccc(F)c5sc(N)nc45)c(Cl)cc23)CC1 [Compound A171, 1-(4-(7-(2-amino-7-fluorobenzo[d]thiazol-4-yl)-6-chloro-8-fluoro-2-(((2R,7aS)-2-fluorotetrahydro-1H-pyrrolizin-7a(5H)-yl)methoxy)quinazolin-4-yl)-1,4-diazepane-1-carbonyl)-1H-imidazole-2-carbonitrile]
- Ratio of IC50 KRAS G12D vs. IC50 KRAS G12S [1]: A (A: indicates that the ratio of IC50 against KrasG12D vs. IC50 against KrasG12S is 1-fold or greater)
- % G12S Modification at 24 hr. [2]: +++ (+++ indicates greater than 20% labelling)
- IC50 [3]: 1000 to 10000 nM

SMILES: N#Cc1c(N)sc2c(F)ccc(-c3c(Cl)cc4c(N5CCC6C5CCCN6C(=O)n5cncn5)nc(OC[C@@]56CCCN5C[C@H](F)C6)nc4c3F)c12 (stereo partly drawn) [Compound A181, 4-(4-(4-(1H-1,2,4-triazole-1-carbonyl)octahydro-1H-pyrrolo[3,2-b]pyridin-1-yl)-6-chloro-8-fluoro-2-(((2R,7aS)-2-fluorotetrahydro-1H-pyrrolizin-7a(5H)-yl)methoxy)quinazolm-7-yl)-2-amino-7-fluorobenzo[b]thiophene-3-carbonitrile]
- Ratio of IC50 KRAS G12D vs. IC50 KRAS G12S [1]: A (A: indicates that the ratio of IC50 against KrasG12D vs. IC50 against KrasG12S is 1-fold or greater)
- % G12S Modification at 24 hr. [2]: +++ (+++ indicates greater than 20% labelling)
- IC50 [3]: ≤ 1000 nM

SMILES: Nc1nc2c(-c3c(Cl)cc4c(N5CCC56CCCN(C(=O)n5cncn5)C6)nc(OCC56CCCN5CC(F)C6)nc4c3F)ccc(F)c2s1 (stereo not drawn) [Compound A197, (1-(7-(2-amino-7-fluorobenzo[d]thiazol-4-yl)-6-chloro-8-fluoro-2-((2-fluorotetrahydro-1H-pyrrolizin-7a(5H)-yl)methoxy)quinazolin-4-yl)-1,6-diazaspiro[3.5]nonan-6-yl)(1H-1,2,4-triazol-1-yl)methanone]
- Ratio of IC50 KRAS G12D vs. IC50 KRAS G12S [1]: A (A: indicates that the ratio of IC50 against KrasG12D vs. IC50 against KrasG12S is 1-fold or greater)
- % G12S Modification at 24 hr. [2]: +++ (+++ indicates greater than 20% labelling)
- IC50 [3]: 1000 to 10000 nM

SMILES: Nc1nc2c(-c3c(Cl)cc4c(N5CCC6(CN(C(=O)n7cncn7)C6)C5)nc(OC[C@@]56CCCN5C[C@H](F)C6)nc4c3F)ccc(F)c2s1 [Compound A201, (6-(7-(2-amino-7-fluorobenzo[d]thiazol-4-yl)-6-chloro-8-fluoro-2-(((2R,7aS)-2-fluorotetrahydro-1H-pyrrolizin-7a(5H)-yl)methoxy)quinazolm-4-yl)-2,6-diazaspiro[3.4]octan-2-yl)(1H-1,2,4-triazol-1-yl)methanone]
- Ratio of IC50 KRAS G12D vs. IC50 KRAS G12S [1]: A (A: indicates that the ratio of IC50 against KrasG12D vs. IC50 against KrasG12S is 1-fold or greater)
- % G12S Modification at 24 hr. [2]: +++ (+++ indicates greater than 20% labelling)
- IC50 [3]: 1000 to 10000 nM
